Series [1] has as its system patients with mild-to-moderate persistent atopic asthma. As to the kind of experiment: Peripheral blood eosinophil count, phase II placebo-controlled study. The settings on record: 10 mg once daily. Format: in vivo, human. From the text: Eosinophil count. Peripheral blood eosinophil counts were obtained from standard complete blood counts done at every centre participating in the study. For example, by using standardized methods on a Beckman Coulter LH series analyzer (Beckman Coulter Ltd, Brea, CA, USA), Negewo, N. A. et al, Peripheral blood eosinophils: a surrogate marker for airway eosinophilia in stable COPD, Int J Chron Obstruct Pulmon Dis. 2016; 11: 1495-1504).
(§1) Eosinophils in S.I units (10^9/L) will be converted in cel/µL with the conversion factor 1 × 10^9/L =1000 cel/µL. The primary efficacy analysis on Per Protocol Population was stratified into 2 subgroups based on Eosinophils (cel/ µL) value at visit V1 from Hematology (Low < 300 cel/ µL, and High >=300 cel/ µL). Trough FEV1 on day 16 (+4-day leeway) was summarized by treatment arm and Eosinophils value at visit V1. A mixed model with FEV1 measurements on day 16 (23 h 15 min and 23 h 45 min post-dose), containing treatment arm and Eosinophils strata as fixed effects, site as random effect with baseline FEV1 on visit V5 as a covariate was fitted.
(§2) The present trial is an exploratory study aiming at evaluating the safety, tolerability, and efficacy of a 15-day, once daily administration of 10 mg Compound (I) in subjects with persistent mild-to-moderate atopic asthma. In terms of exploratory efficacy, the primary purpose of this study is to determine whether Compound (I) compared to placebo, improves the FEV1, as well as to provide comparative safety data from this population of asthmatics. Measurements made in this study will also be used to establish whether this treatment improves other variables related to asthma control and lung function.
(§3) A phase II, double-blind, randomized, parallel-group, placebo-controlled multi-center study to investigate the effect of the adenosine A1 receptor antagonist Compound (I) on forced expiratory volume in 1 second (FEV1) in patients with mild-to-moderate persistent atopic asthma.
The study comprises: (i) a minimum of 5-days screening period, during which the subject’s clinical stability and overall eligibility for the study will be assessed; (ii) a weaning phase where a stepwise tapering of the asthma medication will be done upon 7-day periods; (iii) the randomized, parallel-arm treatment period; and (iv) an end-of-study follow-up visit. The asthma medication weaning period comprises three possible visit pathways in order to adjust for each subject’s asthma therapy on study entry. The study comprises a primary analysis population of 58 stable asthmatic subjects managed as described for the objectives, who meet all inclusion criteria and no exclusion criteria and complete a full, valid data set for the primary variable.

The test system of series [2] is allergic/atopic asthmatics. The series can be described thus: Safety / adverse events, phase II study. Format: in vivo, human. The settings on record: safety population. The procedure: as §2
Of the 107 subjects who were screened, 63 (58.9%) met eligibility criteria and were randomized. Of the 63 patients who were randomized, 63 (100%) completed the study (32 and 31 in the Compound (l) and placebo groups, respectively). There were not adverse events for discontinuation. The safety population included 63 (placebo: n=31 and Compound (l): n=32). Results are based on the per protocol population (placebo: n= 27 and Compound (l): n= 31).
The data highlight the potential of the adenosine A1 receptor antagonist Compound (l) as a promising oral asthma therapy. The safety set included all randomized patients who received at least one dose of any study drug.

Series [3] has as its system patients with mild-to-moderate persistent atopic asthma. As to the kind of experiment: Asthma Control Questionnaire-7 (ACQ-7), phase II study. Format: in vivo, human. The settings on record: mixed model, days 8 and 15, effect: treatment; p 0.0430. From the text:
(§4) Secondary objectives include determinations of FEV1 area under the curve (AUC), evaluations on pre- and post- bronchodilator FEV1, and patient reported outcomes (PROs) including Asthma Control Questionnaire-7 (ACQ-7) and Standardized Asthma Quality of Life Questionnaire (AQLQ(S)).
Table 7 and FIG. 5. Similar trend was observed when comparing Visit and Study Arm* Visit as covariate.

Series [4] has the same test system. As to the kind of experiment: FEV1 AUC30min-23h30min post-dose, phase II study. It counts as in vivo, human.
Source text: (§5) FEV1. Briefly. Spirometry measurements will be performed using spirometry equipment which meets or exceeds the minimal performance recommendations of the ATS/ERS standards (Miller M. R et al, Standardisation of spirometry, Eur Respir J 2005; 26: 319-338). Calibration and quality control should be performed before the site initiation: • a. A 3L syringe will be used to verify spirometer accuracy. • b. The accuracy of the syringe should be certified within the last 12 months and should have an accuracy of ± 15 ml. • c. Before use, the syringe should be maintained at the same temperature as the spirometer to ensure volume stability. • d. For volume-type spirometers, a calibration and leak check must be performed before each testing session according to the manufacturer’s guidelines. A calibration report stored in the site’s source documents is required to confirm the adherence to guidelines. Example of spirometry equipment used in the trial: Jaeger and ERT Spirosphere.
as §4

For series [5] the test system is unchanged. As to the kind of experiment: Trough FEV1 (spirometry), phase II placebo-controlled study. To be noted: for FEV1 LS means difference vs Placebo, Eosinophils category High, Estimate (SE): eosinophils High at V1, p 0.0164; for FEV1 LS means difference vs Placebo, Eosinophils category Low, Estimate (SE): eosinophils Low at V1, p 0.7778. It counts as in vivo, human. The procedure:
as §1, §5, §2, §3, §4
A mixed model with FEV1 measurements on day 16 (23 h 15 min and 23h 45 min post-dose), containing treatment arm as a fixed effect, site as random effect with baseline FEV1 on visit V5 as a covariate was fitted. The treatment effect was larger for Compound (l) group compared to placebo, increasing the FEV1 on 180 mL (p= 0.0816).
FEV1: forced expiratory volume in 1 second; SD: standard deviation; SE: standard error; min: minimum; max: maximum; LS: least squares; Cl: confidence interval. Trough FEV1 on day 16 (+4-day leeway), defined as the average of the FEV1 measurements taken at 23 h15 min and 23 h45 min post-dose.

A further series deals with Brown Norway rats. To be noted: orally administered, antigen induced; cited from earlier work.
In series [6] the test system is chronic obstructive pulmonary disease. The settings on record: 16-week trial; cited from earlier work.
For a further series, the system named is TNFalpha. The settings on record: rat; cited from earlier work.
For series [7], the system named is COPD patients. To be noted: baseline sputum eosinophils ≥3%; cited from earlier work.
Series [8] relates to COPD patients. To be noted: raised baseline eosinophils; cited from earlier work.
Setting [9] is: change from baseline, 10 mg, N=31.

As to `N#Cc1sc(NC(=O)[C@H]2CC[C@@H](C(=O)O)C2)nc1-c1ccccc1` [Compound (I), (1R,3S)-3-((5-cyano-4-phenylthiazol-2-yl)carbamoyl)cyclopentane-1-carboxylic acid], the “Eosinophilic Count on Visit V7 (day 15), Mean” value in [1] (15 days, per protocol population, N=30, baseline mean 392.9) turned out to be 218 cel/ µL. In addition, in series [1] (15 days, per protocol population, N=30, baseline median 370.0), the “Eosinophilic Count on Visit V7 (day 15), Median” value was 150.0 cel/ µL. In addition, in series [1] (day 15), the “Eosinophilic Count, Absolute Change from Baseline, Mean difference vs Placebo (90% Cl)” value is recorded as -233.9 (-Inf, -174.6) cel/ µL. Besides, the “Eosinophilic Count, Relative Change from Baseline, Mean difference vs Placebo (90% Cl)” value in [1] (day 15, p-value <0.0001) is -68.0 (-Inf, -51.95). Moreover, in [1] (day 15 vs visit V5), the “Eosinophilic Count, Absolute Change from Baseline, Mean” value was -184.7 cel/ µL; the “Eosinophilic Count, Absolute Change from Baseline, Median” value is on record as -195.0 cel/ µL; the “Eosinophilic Count, Relative Change from Baseline, Mean” value is recorded as -46.8; the “Eosinophilic Count, Relative Change from Baseline, Median” value is on record as -64.9. Also, the serious adverse events entry in series [2] (10 mg once daily 15 days) is “no serious AEs reported”. In addition, the “severity of most adverse events” value in series [2] (both groups) is listed as “mild/moderate”. For the same molecule, the “ACQ-7 overall score, Mean difference vs Placebo (90% Cl)” value in series [3] is recorded as -0.28. Moreover, in series [4] (setting [9]), the “FEV1 AUC30min-23h30min post-dose through days 15-to-16, Mean” value is recorded as 4.9 and the “FEV1 AUC30min-23h30min post-dose through days 15-to-16, Median” value came to 5.7. For the same molecule, in [4] (p 0.0435), the “FEV1 AUC30min-23h30min post-dose through days 15-to-16, Mean difference vs Placebo (90% Cl)” value is on record as 3.6 (0.96). Moreover, in series [5], the “increase of trough FEV1” value lay within 110 to 200 mL; the “FEV1 LS means difference vs Placebo, Eosinophils category High, Estimate (SE)” value is reported as 0.38 L; the “FEV1 LS means difference vs Placebo, Eosinophils category Low, Estimate (SE)” value was 0.04 L. Moreover, in series [5] (10 mg once daily 15 days, N=31, baseline mean 2.7), the “Trough FEV1 day 16 (+4-day leeway), LS mean” value came out at 3.1 L. Moreover, the “Trough FEV1 day 16 (+4-day leeway), LS mean difference vs. Placebo” value in series [5] (10 mg once daily 15 days, p 0.0816) turned out to be 0.18 L. In addition, in series [5] (listed as COMPOUND (I)), the “FEV1 LS means difference vs Placebo, Eosinophils category High, Estimate (SE)” value is 0.38 (0.15) L and the “FEV1 LS means difference vs Placebo, Eosinophils category Low, Estimate (SE)” value is 0.04 (0.15) L. For the same molecule, the “FEV1 LS means differences in study arm vs Placebo, Estimate (SE)” value in series [5] (mixed model with eosinophils strata, p 0.0596) was 0.21 (0.11) L. Further, in series [5] (mixed model, trough FEV1 day 16, eosinophils High at visit V1, per protocol), the “FEV1 LS means, Estimate (SE), Eosinophils category High” value is on record as 3.06 (0.11) L. For the same molecule, in series [5] (mixed model, trough FEV1 day 16, eosinophils Low at visit V1, per protocol), the “FEV1 LS means, Estimate (SE), Eosinophils category Low” value was 3.04 (0.12) L. In series [5] (trough FEV1 day 16, mixed model, p= 0.0816), the “treatment effect, increase of FEV1 compared to placebo” value was found to be 180 mL.

As for `O=C(Nc1c(Cl)cncc1Cl)c1ccc(OC(F)F)c(OCC2CC2)c1` [Roflumilast], the “bronchoalveolar lavage fluid (BALF) eosinophilia” value in the series with Brown Norway rats is on record as “inhibited”. In series [6], the blood eosinophils result is listed as “not in the blood eosinophils”; the “eosinophils in sputum and bronchial biopsy samples” value is on record as “significant reduction”. In the series on TNFalpha, the “LPS-induced circulating TNFalpha” value is reported as “abrogated”.

Turning to “benralizumab: humanized, afucosylated, monoclonal antibody targeting the IL5-receptor α-chain”, the “improvements in exacerbation rates, SGRQ-C, CRQ-SAS scores and FEV1” value in the series on COPD patients [7] is “not statistically significant”.

B1: mepolizumab: anti-IL-5 monoclonal antibody (antibody, chains of the INN, looked up, V domains shown)
VH: QVTLRESGPALVKPTQTLTLTCTVSGFSLTSYSVHWVRQPPGKGLEWLGVIWASGGTDYNSALMSRLSISKDTSRNQVVLTMTNMDPVDTATYYCARDPPSSLLRLDYWGRGTPVTVSS
VL: DIVMTQSPDSLAVSLGERATINCKSSQSLLNSGNQKNYLAWYQQKPGQPPKLLIYGASTRESGVPDRFSGSGSGTDFTLTISSLQAEDVAVYYCQNVHSFPFTFGGGTKLEIK
As to B1, the “sputum and blood eosinophil counts compared with placebo” value in the series with COPD patients [8] is on record as “significantly reduced”.

The values above are taken from patent publication US20230321053A1, “(1R,3S)-3-((5-CYANO-4-PHENYLTHIAZOL-2-YL)CARBAMOYL)CYCLOPENTANE-1-CARBOXYLIC ACID AND DERIVATIVES THEREOF FOR USE IN THE TREATMENT OF AIRWAY DISEASES” (PALOBIOFARMA, S.L., priority 2020, published 2023).
